Here are results for ten compounds from ChEMBL document CHEMBL1201862, “PubChem BioAssay data set” (2004).

Some test systems named below: MDA-N; BT-549; HT-29; OVCAR-5; RXF 393; SF-268; ACHN; HCT-116; CCRF-CEM; DU-145; LOX IMVI; MOLT-4; OVCAR-3; A498; UACC-62; UO-31; NCI/ADR-RES; SNB-75; NCI-H460; SNB-19.
Common to all, as to test: NCI anticancer screen, dose series, 48 h

SMILES strings stand for the structures.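 All cell lines were grown in 96-well plates and treated with compound for 48 hours. GI50: concentration for 50% inhibition of growth.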 Activity calls are given as the source filed them. Rule as the data show it: active = GI50 up to about 1.1 µM and inactive = higher.

Regarding `COC(=O)C(Cc1ccccc1)C(=O)NC(CNC(=O)OCc1ccccc1)C(=O)OCc1ccccc1` (stereo not given), the GI50 in the test on MDA-N was 21.4 µM (inactive); with BT-549 it was 53.3 µM (inactive); in the test with HT-29, 29.3 µM (inactive); with OVCAR-5 it was > 100 µM (inactive); in the test on RXF 393, 21.8 µM (inactive); in the test on SF-268, 44.8 µM (inactive). Also, the GI50 in the test on ACHN is 34.6 µM (inactive); in the test with HCT-116 it was 31.9 µM (inactive); in the test on CCRF-CEM, 14.7 µM (inactive); with DU-145, 66.5 µM (inactive); in the test on LOX IMVI, 19.6 µM (inactive); in the test with MOLT-4, 11.8 µM (inactive). Further, the GI50 is 20 µM (inactive) in the test on OVCAR-3; > 47.8 µM (inactive) with A498; 23.6 µM (inactive) with UACC-62; 28.6 µM (inactive) in the test with UO-31; 27 µM (inactive) with NCI/ADR-RES; 23.3 µM (inactive) in the test on SNB-75. For the same compound, the GI50 in the test on NCI-H460 was 42.1 µM (inactive); with SNB-19, 86.3 µM (inactive).

With `CC(C)(C)OC(=O)CCCCCNC(=O)CCCCCNC(=O)CCC(CN(CC(=O)OCc1ccccc1)CC(=O)OCc1ccccc1)N(CC(=O)OCc1ccccc1)CC(=O)OCc1ccccc1` (stereo not given), the GI50 with MDA-N, in the test on BT-549, in the test with HT-29, in the test with OVCAR-5, with RXF 393 and with SF-268 was > 100 µM (inactive) in each case. The GI50 in the test with ACHN was > 100 µM (inactive); in the test on HCT-116 it was > 100 µM (inactive); in the test on CCRF-CEM, 31.4 µM (inactive); in the test with DU-145, > 100 µM (inactive); with LOX IMVI it was > 100 µM (inactive); in the test with MOLT-4, 20.1 µM (inactive). Further, the GI50 in the test with OVCAR-3 is > 100 µM (inactive); with A498 it was > 100 µM (inactive); in the test with UACC-62 it was > 100 µM (inactive); in the test on UO-31 it was 71.1 µM (inactive); in the test with NCI/ADR-RES it was > 100 µM (inactive); in the test with SNB-75 it was 20.2 µM (inactive). Besides, the GI50 was 14.6 µM (inactive) in the test with NCI-H460 and > 100 µM (inactive) in the test with SNB-19.

As to `O=c1[nH]c(C23CC4CC(CC(C4)C2)C3)cc2c1c(=O)oc1ccccc12`, the GI50 is 12.8 µM (inactive) in the test with MDA-N; 11.2 µM (inactive) in the test with BT-549; 3.52 µM (inactive) in the test with HT-29; 4.82 µM (inactive) in the test on OVCAR-5; 2.35 µM (inactive) with RXF 393; 0.944 µM (active) in the test with SF-268. In addition, the GI50 in the test on ACHN was 2.92 µM (inactive); in the test on HCT-116, 3.06 µM (inactive); in the test with CCRF-CEM it was 12.5 µM (inactive); in the test with DU-145 it was 6.31 µM (inactive); with LOX IMVI it was 2.95 µM (inactive); with MOLT-4, 10.5 µM (inactive). Further, the GI50 in the test with OVCAR-3 is 4.42 µM (inactive); with A498, 2.26 µM (inactive); with UACC-62, 13.4 µM (inactive); in the test on UO-31, 1.61 µM (inactive); in the test on NCI/ADR-RES it was 3.96 µM (inactive); with SNB-75, 2.53 µM (inactive). For the same compound, the GI50 in the test on NCI-H460 was 2.62 µM (inactive); in the test with SNB-19, 4.98 µM (inactive).

Consider `Cc1cc(N(CCC#N)CCC#N)ccc1C(=N/NC(=O)c1cc(Cl)ccc1O)/N=N/c1cccc([N+](=O)[O-])c1`, for which the GI50 in the test with MDA-N is 37 µM (inactive); in the test on BT-549, 22.4 µM (inactive); in the test on HT-29, 26.7 µM (inactive); in the test on OVCAR-5 it was 35 µM (inactive); in the test on RXF 393 it was 22.2 µM (inactive); in the test with SF-268 it was 18.7 µM (inactive). Moreover, the GI50 is 35.5 µM (inactive) in the test on ACHN; 22.2 µM (inactive) in the test with HCT-116; 5.68 µM (inactive) with CCRF-CEM; 27.2 µM (inactive) in the test with DU-145; 15.2 µM (inactive) in the test on LOX IMVI; 6.03 µM (inactive) in the test with MOLT-4. Moreover, the GI50 in the test on OVCAR-3 is 15.9 µM (inactive); in the test with A498, 15.5 µM (inactive); with UACC-62, 14.1 µM (inactive); in the test with UO-31, 17.6 µM (inactive); with NCI/ADR-RES, 23 µM (inactive); with SNB-75, 27.5 µM (inactive). The GI50 was 25 µM (inactive) with NCI-H460 and 26.5 µM (inactive) in the test with SNB-19.

For `COC(NC(=O)Nc1ccccc1C)(C(F)(F)F)C(F)(F)F`, the GI50 in the test with MDA-N is > 100 µM (inactive); in the test on BT-549 it was 94.4 µM (inactive); with HT-29 it was > 100 µM (inactive); in the test on OVCAR-5, > 100 µM (inactive); with RXF 393, 1.21 µM (inactive); with SF-268, > 100 µM (inactive). Also, the GI50 with ACHN was > 100 µM (inactive); in the test on HCT-116, > 100 µM (inactive); in the test on CCRF-CEM it was 40.7 µM (inactive); in the test on DU-145, > 100 µM (inactive); in the test with LOX IMVI it was > 100 µM (inactive); with MOLT-4, > 100 µM (inactive). For the same compound, the GI50 with OVCAR-3 is > 100 µM (inactive); in the test on A498 it was > 100 µM (inactive); in the test on UACC-62, 56.6 µM (inactive); with UO-31, > 100 µM (inactive); with NCI/ADR-RES it was > 100 µM (inactive); in the test on SNB-75 it was > 100 µM (inactive). Moreover, the GI50 in the test with NCI-H460 was > 100 µM (inactive); in the test with SNB-19, 44.4 µM (inactive).

`C=C1C(=O)OC2CC(C)C3CC(O)OC(OCC)C3(C)CC12` (stereo not given): the GI50 in the test on MDA-N is 17.5 µM (inactive); in the test with BT-549, > 41.8 µM (inactive); in the test with HT-29, 17.8 µM (inactive); in the test on OVCAR-5, 20.2 µM (inactive); with RXF 393 it was 14.8 µM (inactive); in the test on SF-268, 18 µM (inactive). The GI50 in the test with ACHN is 15.4 µM (inactive); in the test on HCT-116 it was 11.9 µM (inactive); with CCRF-CEM, 6.46 µM (inactive); in the test with DU-145 it was 33.6 µM (inactive); in the test with LOX IMVI, 6.01 µM (inactive); with MOLT-4, 16.7 µM (inactive). Further, the GI50 was 15.3 µM (inactive) in the test on OVCAR-3; 28.1 µM (inactive) in the test on A498; > 37.6 µM (inactive) with UACC-62; 22.3 µM (inactive) in the test with UO-31; 16.7 µM (inactive) in the test on NCI/ADR-RES; 15.5 µM (inactive) in the test with SNB-75. The GI50 with NCI-H460 is 18.6 µM (inactive); in the test on SNB-19, 26 µM (inactive).

Consider `CCCCN(Cc1ccccc1)/C(=N/C#N)N(Cc1ccccc1)Cc1ccccc1`, for which the GI50 is 14.2 µM (inactive) in the test on MDA-N; 19.2 µM (inactive) in the test with BT-549; 10.9 µM (inactive) in the test with HT-29; 27 µM (inactive) in the test on OVCAR-5; 17.3 µM (inactive) with RXF 393; 18.8 µM (inactive) in the test on SF-268. In addition, the GI50 is 12.1 µM (inactive) with ACHN; 5.16 µM (inactive) in the test on HCT-116; 26.7 µM (inactive) in the test with CCRF-CEM; 34.7 µM (inactive) in the test with DU-145; 10.9 µM (inactive) in the test with LOX IMVI; > 100 µM (inactive) in the test on MOLT-4. Moreover, the GI50 in the test with OVCAR-3 is 4.3 µM (inactive); with A498, 36.6 µM (inactive); in the test with UACC-62, 16.1 µM (inactive); with UO-31, 14.6 µM (inactive); in the test with NCI/ADR-RES it was 18.7 µM (inactive); in the test with SNB-75, 21.1 µM (inactive). Besides, the GI50 in the test with NCI-H460 was 9.84 µM (inactive); in the test on SNB-19, 20.7 µM (inactive).

As to `CN(C)c1ccc(/C=C(\NC(=O)c2ccccc2)C2=NC(CCC(=O)O)C(=O)O2)cc1` (stereo not given), the GI50 with MDA-N, with BT-549, in the test with HT-29, in the test with OVCAR-5, in the test with RXF 393 and in the test on SF-268 was > 50 µM (inactive) each time. Besides, the GI50 in the test with ACHN was > 50 µM (inactive); with HCT-116, > 50 µM (inactive); in the test with CCRF-CEM it was > 43.9 µM (inactive); with DU-145 it was > 50 µM (inactive); in the test on LOX IMVI, > 44.9 µM (inactive); with MOLT-4, > 50 µM (inactive). Besides, the GI50 with OVCAR-3 was > 50 µM (inactive); with A498, > 50 µM (inactive); in the test on UACC-62 it was > 50 µM (inactive); in the test on UO-31, > 50 µM (inactive); with NCI/ADR-RES, 49 µM (inactive); in the test on SNB-75, > 50 µM (inactive). Further, the GI50 is > 50 µM (inactive) in the test on NCI-H460 and 33.2 µM (inactive) with SNB-19.

With `Cc1cc(C)nc(NS(=O)(=O)c2ccc(NC(=O)c3ccc4nc5ccccc5c(Nc5ccc(S(=O)(=O)Nc6nc(C)cc(C)n6)cc5)c4c3)cc2)n1`, the GI50 was 91 µM (inactive) in the test with MDA-N; 19 µM (inactive) with BT-549; 64.9 µM (inactive) with HT-29; > 100 µM (inactive) with OVCAR-5; 34.9 µM (inactive) in the test with RXF 393; 58.6 µM (inactive) with SF-268. In addition, the GI50 in the test on ACHN was > 100 µM (inactive); with HCT-116, 57 µM (inactive); in the test on CCRF-CEM it was 36.6 µM (inactive); in the test on DU-145, > 100 µM (inactive); with LOX IMVI it was 19.1 µM (inactive); with MOLT-4, 28.5 µM (inactive). The GI50 was > 100 µM (inactive) in the test on OVCAR-3; > 100 µM (inactive) in the test on A498; 66.4 µM (inactive) in the test with UACC-62; > 100 µM (inactive) with UO-31; > 100 µM (inactive) in the test with NCI/ADR-RES; > 100 µM (inactive) in the test with SNB-75. In addition, the GI50 is 88.5 µM (inactive) in the test on NCI-H460 and > 100 µM (inactive) in the test on SNB-19.

In the case of `CC(=O)OCC1=C(C)C[C@H]([C@@H](COC(C)=O)C2CCC3C4C[C@H]5O[C@]56CC=CC(=O)[C@]6(C)C4CC[C@@]32C)OC1=O` (stereo not given in full), the GI50 in the test with MDA-N is 0.175 µM (active); in the test with BT-549 it was 0.26 µM (active); in the test with HT-29, 0.123 µM (active); in the test on OVCAR-5, 1.23 µM (inactive); in the test on RXF 393, 0.369 µM (active); in the test with SF-268, 0.379 µM (active). For the same compound, the GI50 was 0.302 µM (active) in the test on ACHN; 0.097 µM (active) in the test on HCT-116; 0.0191 µM (active) in the test with CCRF-CEM; 0.414 µM (active) in the test on DU-145; 0.122 µM (active) in the test with LOX IMVI; 0.0204 µM (active) in the test on MOLT-4. The GI50 with OVCAR-3 is 0.109 µM (active); with A498, 0.624 µM (active); with UACC-62, 0.258 µM (active); in the test with UO-31 it was 0.993 µM (active); with NCI/ADR-RES it was 0.185 µM (active); with SNB-75, 2.16 µM (inactive). Besides, the GI50 with NCI-H460 is 0.929 µM (active); with SNB-19 it was 0.681 µM (active).
